Measured values taken from patent publication US7122549B2, “Saframycins, analogues and uses thereof” (President and Fellows of Harvard College, priority 2000, dated 2006).
Like-named read-outs stand apart in the source and are kept apart here.

Key:
[1] = system: A-549 lung carcinoma; test: Cell Growth Inhibition Assay (MTS, CellTiter 96 AQueous); format: cell-based
Description: (§1) The two cell lines used, A375 malignant melanoma and A-549 lung carcinoma, were purchased from American Type Culture Collection. These cells were cultured at 37° C. in a humidified atmosphere of 5% CO2 in Dulbecco's Modified Eagle Medium (DMEM) supplemented with 10% fetal bovine serum (FBS), 0.1% glutamine and 0.1% penicillin-streptomycin. DMEM, FBS, glutamine and penicillin-streptomycin were purchased from Life Technologies (Grand Island, N.Y.).
(§2) Exponentially growing cells were seeded at ˜3000 (50 μl) cells per well in 96-well flat-bottomed microtiter plates and then incubated at 37° C. in a humidified atmosphere of 5% CO2/95% air for 24 hr. An analogue was dissolved in dimethyl sulfoxide to give a concentration of 0.6 mg/ml, which was further diluted with the culture medium containing 10% fetal bovine serum. Nine three-fold dilutions were prepared with the maximum concentration being 1/300 of the original DMSO solution (i.e. 2000 ng/ml). This procedure was repeated for each analogue. Fifty microliters of the obtained dilutions were each transferred into the well of the above described culture plate. The cell culture was then placed back into the incubator at 37° C. under the 5% CO2 atmosphere for 72 hr. Cell proliferation was quantified by using the CellTiter 96 AQueous Assay (Promega). In this assay a mixture solution (20 μl) of MTS [Owen's reagent: 3-(4,5-dimethylthiazol-2-yl)-5-(3-carbomethoxyphenyl)-2-(4-sulfophenyl)-2H-tetrazolium inner salt] and phenazine methosulfate (PMS) was added to each well. The resulting mixtures were further incubated for 2.5 hr. The absorbance was measured with a microplate reader at a test wavelength of 540 nm and a reference wavelength of 655 nm to serve as an index of the number of viable cells. The inhibitory ratio of the test compound was calculated according to the following formula: inhibition ratio (%)=100×(C−T)/C, where T is an absorbance of the well containing a test compound and C is an absorbance of the well containing no test compound. The IC50 was calculated by the least squares method.

[2] = system: A375 malignant melanoma; test: as above; format: cell-based
Description: as §1, §2

[3] = Homo sapiens, Table 1, A549 cells, 72 hr with compound, MTS readout, read-out: IC50, nM A549
[4] = Homo sapiens, A-375, Table 1, A375 cells, 72 hr with compound, MTS readout, read-out: IC50, nM A375
[5] = Homo sapiens, Table 2, A549 cells, 72 hr with compound, MTS readout, read-out: IC50 (nM) Cell line A549-Lung
[6] = Homo sapiens, A-375, Table 2, A375 cells, 72 hr with compound, MTS readout, read-out: IC50 (nM) Cell line A375-Melanoma
[7] = Homo sapiens, Table 3, A549 cells, 72 hr with compound, MTS readout, read-out: IC50 (nM) Cell line A549-Lung
[8] = Homo sapiens, A-375, Table 3, A375 cells, 72 hr with compound, MTS readout, read-out: IC50 (nM) Cell line A375-Melanoma
[9] = Homo sapiens, A549, 72 h, read-out: IC50, nM A549
[10] = Homo sapiens, A-375, 72 h, read-out: IC50, nM A375

SMILES | IC50 [1, 3] | IC50 [2, 4] | also measured
NC(=O)c1c[nH]c2ccccc12 | 1200 nM | 76 nM | –
NC(=O)[C@@H](N)Cc1c[nH]c2ccccc12 | > 1400 nM | 310 nM | –
NC(=O)c1c(F)cccc1F | 395 nM | 12 nM | –
CCCCC[C@H]1c2c(O)c(OC)c(C)c(OC)c2C[C@H]2[C@H]3c4c(O)c(OC)c(C)c(OC)c4C[C@@H]([C@H](C#N)N12)N3C | – | – | IC50 [1, 5]: 1400 nM; IC50 [2, 6]: 116 nM
COc1c(C)c(OC)c2c(c1O)[C@@H]1[C@@H]3Cc4c(OC)c(C)c(OC)c(O)c4[C@H](CNC(=O)c4ccc5ccccc5n4)N3C[C@H](C2)N1C [drawing 172 X = H, Reduced quinalascidin analog] | – | – | IC50 [1, 7]: > 9000 nM; IC50 [2, 8]: > 9000 nM
COc1c(C)c(OC)c2c(c1O)[C@@H]1[C@@H]3Cc4c(OC)c(C)c(OC)c(O)c4[C@H](CNC(=O)c4ccc5ccccc5n4)N3[C@@H](O)[C@H](C2)N1C [drawing 172 X = OH, Hemiaminal derivative] | – | – | IC50 [1, 7]: 13 nM; IC50 [2, 8]: 0.9 nM
COC1=C(C)C(=O)C2=C(C1=O)[C@@H]1[C@@H]3CC4=C(C(=O)C(OC)=C(C)C4=O)[C@H](CNC(=O)C(C)=O)N3[C@@H](C#N)[C@H](C2)N1C [Saframycin A, (−)-Saframycin A, reference compound] | – | – | IC50 ([1]; Table 1, A549 cells, 72 hr with compound, MTS readout, read-out: IC50, nM A549): 133 nM; IC50 ([2]; Table 1, A375 cells, 72 hr with compound, MTS readout, read-out: IC50, nM A375): 5.3 nM
COc1c(C)c(OC)c2c(c1O)[C@@H]1[C@@H]3Cc4c(OC)c(C)c(OC)c(O)c4[C@H](CNC(=O)OCC4c5ccccc5-c5ccccc54)N3[C@@H](C#N)C(C2)N1C | – | – | IC50 [1, 5]: 176 nM; IC50 [2, 6]: 35 nM
CC(=O)C(N)=O | 160 nM | 4.5 nM | –
COc1c(C)c(OC)c2c(c1O)[C@@H]1[C@@H]3Cc4c(OC)c(C)c(OC)c(O)c4[C@H](CNC(=O)c4ccccc4-c4ccccc4)N3[C@@H](C#N)[C@H](C2)N1C [drawing 136 R = Phenyl, Biphenyl-2-carboxylic acid amide derivative] | 330 nM | 34 nM | –
NC(=O)OCc1ccccc1 | – | – | IC50 [1, 9]: 50 nM; IC50 [2, 10]: 3.9 nM
NC(=O)c1ncc(Br)c2ccccc12 | 25 nM | 9.2 nM | –
COc1c(C)c(OC)c2c(c1O)[C@@H]1[C@@H]3Cc4c(OC)c(C)c(OC)c(O)c4[C@H](CNC(=O)c4ccc5ccccc5n4)N3[C@@H](OC)[C@H](C2)N1C [drawing 172 X = OCH3, Methoxy derivative] | – | – | IC50 [1, 7]: 1100 nM; IC50 [2, 8]: 120 nM
COc1c(C)c(OC)c2c(c1O)[C@@H]1[C@@H]3Cc4c(OC)c(C)c(OC)c(O)c4[C@H](CN(Cc4ccccn4)Cc4ccccn4)N3[C@@H](C#N)[C@H](C2)N1C [N-(Pyr)2, bis-2-Pyridyl Derivative] | > 1400 nM | > 1400 nM | –
Cc1ccc(C(N)=O)c(O)c1 | 6.5 nM | 1.2 nM | –
NC(=O)C(=O)c1c[nH]c2ccccc12 | – | – | IC50 [1, 9]: 110 nM; IC50 [2, 10]: 9.6 nM
COc1c(C)c(OC)c2c(c1O)[C@@H]1[C@@H]3Cc4c(OC)c(C)c(OC)c(O)c4[C@H](CNC(=O)c4ccc5cc(Cl)ccc5n4)N3[C@@H](C#N)[C@H](C2)N1C [drawing 162 R = Cl (14), 6-Chloroquinoline-2-carboxylic acid amide derivative] | 4.1 nM | 1.5 nM | –
COc1c(C)c(OC)c2c(c1O)[C@@H]1[C@@H]3Cc4c(OC)c(C)c(OC)c(O)c4[C@H](CNC(=O)c4ccc5ccccc5n4)N3[C@@H](C#N)[C@H](C2)N1C [drawing 160 R = H (11), Quinoline-2-carboxylic acid amide derivative] | 4.4 nM | 1.3 nM | –
COc1c(C)c(OC)c2c(c1O)[C@@H]1[C@@H]3Cc4c(OC)c(C)c(OC)c(O)c4[C@H](CNC(=O)c4ccccc4)N3[C@@H](C#N)[C@H](C2)N1C [drawing 136 R = H, Benzamide derivative] | 91 nM | 4.1 nM | –
COc1ccc(OC(N)=O)cc1 | – | – | IC50 [1, 9]: 96 nM; IC50 [2, 10]: 3.4 nM
COc1c(C)c(OC)c2c(c1O)[C@@H]1[C@@H]3Cc4c(OC)c(C)c(OC)c(O)c4[C@H](CNC(=O)c4ccc5cc(OCCCCN)ccc5n4)N3[C@@H](C#N)[C@H](C2)N1C | – | – | IC50 [1, 5]: 118 nM; IC50 [2, 6]: 29 nM
NC(=O)Cc1ccccc1 | – | – | IC50 [1, 9]: 1200 nM; IC50 [2, 10]: 34 nM
NC(=O)c1ccccn1 | 40 nM | 3.3 nM | –
COc1c(C)c(OC)c2c(c1O)[C@@H]1[C@@H]3Cc4c(OC)c(C)c(OC)c(O)c4[C@H](CNC(=O)c4ccccc4F)N3[C@@H](C#N)[C@H](C2)N1C [drawing 136 R = F, 2-Fluorobenzamide derivative] | 37 nM | 2.5 nM | –
NC(=O)c1cnc2ccccc2n1 | 4.7 nM | 1.2 nM | –
COc1c(C)c(OC)c2c(c1O)[C@@H]1[C@@H]3Cc4c(OC)c(C)c(OC)c(O)c4[C@H](CNC(=O)c4ccc5cc(OCCCCNC(=O)CCCCCNC(=O)CCCCCNC(=O)CCCC[C@@H]6SC[C@@H]7NC(=O)N[C@@H]76)ccc5n4)N3[C@@H](C#N)[C@H](C2)N1C [Biotinylated derivative, Biotinylated Quinalascidin Analog 1] | – | – | IC50 ([1]; Homo sapiens, A549, 72 h, read-out: IC50 (nM) Cell line A549-Lung): 990 nM; IC50 ([2]; Homo sapiens, A-375, 72 h, read-out: IC50 (nM) Cell line A375-Melanoma): 210 nM
COc1cccc(C(N)=O)c1 | 99 nM | 4.1 nM | –
NC(=O)c1cc2cc(F)ccc2[nH]1 | 26 nM | 2.5 nM | –

Further lines, with some results ahead:

IC50 [1, 3] | IC50 [2, 4] | SMILES | also measured
4.6 nM | 1.4 nM | Cc1ccc2ccc(C(N)=O)nc2c1 | –
290 nM | 13 nM | NC(=O)c1ccco1 | –
700 nM | 260 nM | NCc1ccccn1 | –
890 nM | 37 nM | NC(=O)Nc1ccccc1 | –
390 nM | 43 nM | NC(=O)c1cccc2ccccc12 | –
9.2 nM | 1.7 nM | O=C1NC(=O)c2ccccc21 | –
44 nM | 2.9 nM | NC(=O)/C=C/c1ccccc1 | –
860 nM | 81 nM | Cc1ccc(S(N)(=O)=O)cc1 | –
31 nM | 2.7 nM | NC(=O)c1cc2ccccc2[nH]1 | –
42 nM | 7.5 nM | NC(=O)c1cc(O)c2ccc(Cl)cc2n1 | –
1100 nM | 85 nM | NC(=O)c1cccc2[nH]ccc12 | –
11.3 nM | 1.2 nM | NC(=O)c1ncccc1O | –
100 nM | 8.5 nM | NC(=O)c1c(F)c(F)c(F)c(F)c1F | –
390 nM | 14 nM | COc1cc(C(N)=O)cc(OC)c1OC | –
1100 nM | 330 nM | NCc1ccccc1 | –
100 nM | 4.4 nM | NC(=O)c1cnccn1 | –
– | 3440 nM | NC(=O)C1NCCc2ccccc21 (stereo not shown) | –
32 nM | 2.5 nM | NC(=O)c1nccc2ccccc12 | –
39 nM | 2.4 nM | NC(=O)C(=O)Cc1ccccc1 | –
200 nM | 8.3 nM | NC(=O)[C@@H]1Cc2ccccc2CN1 | –
1100 nM | 96 nM | NC(=O)[C@H](Cc1c[nH]c2ccccc12)NC(=O)OCc1ccccc1 | –
320 nM | 23 nM | NC(=O)c1c(O)ccc2ccccc12 | –
74 nM | 13 nM | NC(=O)c1cc(O)c2cc(Cl)ccc2n1 | –
> 510 nM | > 510 nM | O=C1NC(=O)c2ncccc21 | –
